# Data as given in US11491204B2, “Composition comprising poly I:C and LAG-3-IGG fusion protein” (CYTLIMIC INC., priority 2015, dated 2022).
# Columns and labels:
# P815 tumor cells [1] = test: Suppression effect of tumor growth by immunoadjuvant combination (P815 model); type: in vivo, DBA/2 mice
# Source text: The following substances were used as adjuvants.
# Poly I:C (TLR3 agonist) (Invivogen, SanDiego, USA)
# RIBOXXOL (TLR3 agonist) (Riboxx, Radebeul, Germany)
# MPL (TLR4 agonist) (Invivogen, SanDiego, USA)
# Imiquimod (TLR7/8 agonist) (Invivogen, SanDiego, USA)
# CpG (TLR9 agonist) (Invivogen, SanDiego, USA)
# LAG-3 (Adipogen, SanDiego, USA)
# P815 tumor cells were subcutaneously inoculated to DBA/2 mice in an amount of 5×10^5 cells per mouse to prepare cancer model mice. The day of inoculation was specified as Day 0. On Day 7, PIA CTL (2.5×10^5 cells per mouse) were intravenously injected. Day 8 and Day 15, an admixture of PIA peptide (50 μg per mouse) and an adjuvant in PBS was subcutaneously injected. Mice were divided into 9 groups each consisting of 4 or 5 mice and the following adjuvants were used respectively.
# Group 1: PIA peptide alone (control)
# (§1) Group 2: Poly IC (50 μg/mouse)
# Group 3: Poly IC (50 μg/mouse)+LAG-3 (1 μg/mouse)
# Group 4: No PIA peptide, Poly IC (50 μg/mouse)+LAG-3 (1 μg/mouse) alone
# Group 5: RIBOXXOL (100 μg/mouse)
# Group 6: RIBOXXOL (100 μg/mouse)+LAG-3 (1 μg/mouse)
# Group 7: MPL (10 μg/mouse)+LAG-3 (1 μg/mouse)
# Group 8: Imiquimod (50 μg/mouse)+LAG-3 (1 μg/mouse)
# Group 9: CpG (10 μg/mouse)+LAG-3 (1 μg/mouse)
# P815 tumor cells [2] = test: Cancer vaccine: comparison of adjuvants with P1A peptide in P815-grafted DBA/2 mice; type: in vivo; settings: groups of 5 mice; P1A CTL i.v. Day 8; P1A peptide 50 μg + adjuvant s.c. Day 9 and Day 16
# Source text: In accordance with the protocol shown in FIG. 1, the effects of adjuvants in cancer vaccines using a cancer-antigen derived peptide were compared.
# As cancer model mice, DBA/2 mice, to which P815 cells (DBA/2mouse-derived mouse mastocytoma) were grafted, were put in use.
# As a cancer-antigen derived peptide, a peptide (hereinafter referred to as “PIA peptide”) consisting of a partial sequence of PIA protein was used, which is a tumor antigen of P815 tumor and known to be restrictively presented by an MHC H-2Ld. The amino acid sequence of P1A peptide are represented by LPYLGWLVF (SEQ. ID No: 1).
# As P1A CTL, a T cell expressing a T cell receptor and recognizing P1A peptide was used. […] Based on the positive ratio, the number of P1A-CTL cells was determined and administered.
# As the adjuvants, the following substances were used. • Whole pertussis bacterial cell (PT) (BioFarma, Bandung, Indonesia) • Poly I:C (TLR3 agonist) (Invivogen, SanDiego, USA) • CpG (TLR9 agonist) (Invivogen, SanDiego, USA) • IFA (incomplete Freund's adjuvant) (Seppic, Paris, France) • LAG-3 (Adipogen, SanDiego, USA) Method
# P815 tumor cells were subcutaneously inoculated to DBA/2 mice in an amount of 5×10^5 cells per mouse. The day of inoculation was specified as Day 0. On Day 8, P1A CTL (2.5×10^5 cells per mouse) were intravenously injected. […]
# B16-F10 melanoma cells = test: Tumor growth inhibitory effect by combination of immuno-adjuvants, B16-F10 melanoma inoculation model mice; type: in vivo, C57BL/6 mice
# Method: To C57BL/6 mice, B16-F10 melanoma cells (1×10^5 cells per mouse) were subcutaneously inoculated to prepare cancer model mice.
# The day of inoculation was specified as Day 0. On Day 5 and Day 12, twice in total, an admixture of gp100 peptide (50 μg per mouse) and an adjuvant in PBS was subcutaneously injected. The following adjuvants were used in respective mice groups.
# Group 1: IFA (50 μL/mouse)
# as §1
# Group 3: LAG-3 (1 μg/mouse)
# Group 4: LAG-3 (1 μg/mouse)+Poly IC (50 μg/mouse)
Substance,"Day up to which all mice died (P815 tumor cells [1]; 5 out of 5 mice, PIA peptide without adjuvant) [days]",number of mice survived until Day 70 without increasing tumor size (P815 tumor cells [2]),"mice survived (out of 5) (P815 tumor cells [1]; with PIA peptide 50 μg s.c. Day 8 and Day 15, time point apparently Day 40)","effect of extending survival time (in words) (B16-F10 melanoma cells; Poly IC and LAG-3 alone compared to IFA group, combination compared to IFA, Poly IC and LAG-3 groups)",Day on which five mice all died (B16-F10 melanoma cells; gp100 peptide 50 μg + adjuvant s.c. Day 5 and Day 12) [days]
LPYLGWLVF (listed as Mus musculus) [PIA peptide alone],≤ 40,,,,
Polyinosinic:polycytidylic acid [Poly IC],,1,Four,a significant effect of extending survival time was not observed,35
